Converted amounts (≈) assume the structure as drawn.
What was measured:
[1] = Saturated solubility of AGN in the vehicle of the gels (HPLC), with Student's t-test against gel B; format: physicochemical; conditions: for solubility: gel vehicle with propionic acid, propionic acid for carbomer
Description: To determine the saturated solubility of the drug in the vehicle of each of the 18 gel formulations, solvent systems containing the same ingredients as the gels were prepared. The saturated solubility was determined once in solutions of the vehicle without carbomer and base, and another time by substituting propionic acid for carbomer in order to ease filtration of the solution while keeping the ionic strength of the solution as close to that of the gel as possible. The solutions were filtered through a 0.45 μm filter to remove any crystals which may have formed. The resulting solutions were then diluted and their drug content was assayed using High Performance Liquid Chromatography (HPLC) as described in Method HL036.
(§1) The saturated solubility values, and slopes of the line obtained from the plot of % drug released vs. square root of time for each gel were analyzed statistically. […] RS/Discover® was used to calculate equations which fit the data and to construct response surfaces.

[2] = In vitro release of AGN from the 0.1% gels, slope of % drug released vs. square root of time; format: physicochemical; conditions: Table XVIII, beyond release of 10% of the drug
Description: The release of AGN through each of the 0.1% gels was studied using a previously developed release method. The collected fractions were then assayed directly using HPLC Method HL036.
The data generated from the assay of the collected fractions for each gel were used to plot the release profile of the drug as the % drug released vs. square root of time. For each release profile, the slope of the linear region containing at least 6 points was calculated using linear regression. The standard deviation and correlation coefficient of each slope was also calculated.
as §1
Drug release was studied from all […] formulated gels as described previously. The release profiles for each gel were an average of six runs, and were plotted as % Drug released vs. Square root of time.
In order to compare the release rates of drug from each formulation, the slope of the linear portion of the plot of % Drug released vs. Square root of time was computed for each of the 18 gels. The slope for each plot was obtained as an average of six runs and based on a correlation coefficient (R^2)>0.94800.

[3] = Solubility of AGN in various aqueous solutions at 35° ± 0.5° C. (Table I); format: physicochemical
[4] = Stability of AGN formulations; format: physicochemical
[5] = Solubility of AGN in PEG 400; format: physicochemical; conditions: peg 400, organic solvent or mixture
[6] = Treatment of acne and psoriasis; set-up: species or system humans; conditions: in vivo

CCOC(=O)c1ccc(C#Cc2ccc3c(c2)C(C)(C)CCS3)nc1 [AGN]
drug present in the aqueous based gel in the form of solid particles ([1]; from solubility data): approximately 90% | solubility ([1]; hexylene glycol 0%, polysorbate 40 0.0%, poloxamer 407 0.0%): 14.5 ± 0.3 µg/mL (≈ 41.3 µM) | solubility ([1]; hexylene glycol 0%, polysorbate 40 0.0%, poloxamer 407 0.2%): 67.9 ± 4.4 µg/mL (≈ 193 µM) | solubility ([1]; hexylene glycol 0%, polysorbate 40 0.0%, poloxamer 407 0.4%): 87.4 ± 6.6 µg/mL (≈ 249 µM) | solubility ([1]; hexylene glycol 0%, polysorbate 40 0.2%, poloxamer 407 0.0%): 52.3 ± 2.7 µg/mL (≈ 149 µM) | solubility ([1]; hexylene glycol 0%, polysorbate 40 0.2%, poloxamer 407 0.2%): 69.7 ± 3.2 µg/mL (≈ 198 µM) | solubility ([1]; hexylene glycol 0%, polysorbate 40 0.2%, poloxamer 407 0.4%): 80 ± 4 µg/mL (≈ 228 µM) | solubility ([1]; hexylene glycol 0%, polysorbate 40 0.4%, poloxamer 407 0.0%): 89.3 ± 8.8 µg/mL (≈ 254 µM) | solubility ([1]; hexylene glycol 0%, polysorbate 40 0.4%, poloxamer 407 0.2%): 77.5 ± 0.8 µg/mL (≈ 221 µM) | solubility ([1]; hexylene glycol 0%, polysorbate 40 0.4%, poloxamer 407 0.4%): 86.7 ± 6 µg/mL (≈ 247 µM) | solubility ([1]; hexylene glycol 2%, polysorbate 40 0.0%, poloxamer 407 0.0%): 20.9 ± 1.7 µg/mL (≈ 59.5 µM) | solubility ([1]; hexylene glycol 2%, polysorbate 40 0.0%, poloxamer 407 0.2%): 73.7 ± 9 µg/mL (≈ 210 µM) | solubility ([1]; hexylene glycol 2%, polysorbate 40 0.0%, poloxamer 407 0.4%): 86.3 ± 2.6 µg/mL (≈ 246 µM) | solubility ([1]; hexylene glycol 2%, polysorbate 40 0.2%, poloxamer 407 0.0%): 75.9 ± 3.5 µg/mL (≈ 216 µM) | solubility ([1]; hexylene glycol 2%, polysorbate 40 0.2%, poloxamer 407 0.2%): 93.8 ± 0.1 µg/mL (≈ 267 µM) | solubility ([1]; hexylene glycol 2%, polysorbate 40 0.2%, poloxamer 407 0.4%): 102 ± 2.9 µg/mL (≈ 290 µM) | solubility ([1]; hexylene glycol 2%, polysorbate 40 0.4%, poloxamer 407 0.0%): 98 ± 11.7 µg/mL (≈ 279 µM) | solubility ([1]; hexylene glycol 2%, polysorbate 40 0.4%, poloxamer 407 0.2%): 130 ± 6.2 µg/mL (≈ 370 µM) | solubility ([1]; hexylene glycol 2%, polysorbate 40 0.4%, poloxamer 407 0.4%): 118 ± 3.8 µg/mL (≈ 336 µM) | rate of drug release over time [2]: remains constant even after three hours | solubility ([3]; 0.07% Polysorbate 40, 35° C.): 3.7 ± 0.6 µg/mL (≈ 10.5 µM) | solubility ([3]; 0.15% Polysorbate 40, 35° C.): 9.2 ± 1.4 µg/mL (≈ 26.2 µM) | solubility ([3]; 0.30% Polysorbate 40, 35° C.): 18.3 ± 1.8 µg/mL (≈ 52.1 µM) | solubility ([3]; 0.50% Polysorbate 40, 35° C.): 33.2 ± 0.3 µg/mL (≈ 94.5 µM) | solubility ([3]; 1% Oleth-20/Water, 35° C.): 73.3 ± 3 µg/mL (≈ 209 µM) | solubility ([3]; 2% Oleth-20/Water, 35° C.): 149.2 ± 0.6 µg/mL (≈ 425 µM) | solubility ([3]; 4% Oleth-20/Water, 35° C.): 311 ± 7 µg/mL (≈ 885 µM) | Avg. Solubility ([3]; 20% Ethanol/Water, 35° C.): Not Detected | Avg. Solubility ([3]; 20% PEG-400/Water, 35° C.): Not Detected | solubility ([3]; 96% Oleth-20/Water, 35° C.): 435.2 ± 1.1 µg/mL (≈ 1240 µM) | Avg. Solubility ([3]; 100% Water, 35° C.): Not Detected | solubility ([3]; organic solvent or mixture, 40% Ethanol/Water, 35° C.): 147 ± 20.9 µg/mL (≈ 419 µM) | solubility ([3]; organic solvent or mixture, 40% PEG-400/Water, 35° C.): 4.4 ± 0.5 µg/mL (≈ 12.5 µM) | solubility ([3]; organic solvent or mixture, 60% Ethanol/Water, 35° C.): 22235 ± 7.8 µg/mL (≈ 63300 µM) | solubility ([3]; organic solvent or mixture, 60% PEG-400/Water, 35° C.): 89.6 ± 1.1 µg/mL (≈ 255 µM) | solubility ([3]; organic solvent or mixture, 80% Ethanol/Water, 35° C.): 8220 ± 221 µg/mL (≈ 23400 µM) | solubility ([3]; organic solvent or mixture, 80% PEG-400/Water, 35° C.): 2160 ± 89.9 µg/mL (≈ 6150 µM) | solubility in water (in words) ([3]; water): extremely low | stabilization of alcoholic solutions containing AGN ([4]; alcoholic solutions with BHT (preformulation report)): stabilized by BHT | stability of laboratory formulation of AGN ([4]; prepared without ascorbic acid): poor stability | solubility [5]: 2200 µg/mL (≈ 6260 µM) | activity in the treatment of acne and psoriasis [6]: active in the treatment of acne and psoriasis
